Tests used:
MAPK14 (human) = MAPK14 (human) (UniProt Q16539); assay: Inhibition of LPS-Induced TNF-alpha Production in Human Peripheral Blood Mononuclear Cell; details: pbmc
MAPK14 (mice) = assay: Inhibition of LPS-Induced TNF-alpha Production in Mice; details: dose or concentration not given here
MAPK14 = MAPK14 (UniProt Q16539); assay: Inhibition of MAPK14 Kinase Activity
Chain of MAPK14 (Q16539 whole entry, looked up): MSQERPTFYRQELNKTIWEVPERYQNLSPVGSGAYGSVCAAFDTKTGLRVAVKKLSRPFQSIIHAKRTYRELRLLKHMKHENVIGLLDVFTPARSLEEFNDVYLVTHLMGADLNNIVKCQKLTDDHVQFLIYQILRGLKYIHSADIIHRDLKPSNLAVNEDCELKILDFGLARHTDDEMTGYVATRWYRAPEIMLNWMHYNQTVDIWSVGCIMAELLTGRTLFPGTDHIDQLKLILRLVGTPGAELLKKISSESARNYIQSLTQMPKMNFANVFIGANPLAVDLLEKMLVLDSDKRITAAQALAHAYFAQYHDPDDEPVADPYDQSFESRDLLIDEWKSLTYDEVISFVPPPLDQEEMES

Chain of MAPK14 (human) (Q16539 whole entry, looked up): as above

SMILES	IC50 (MAPK14 (human)) [nM]	inhibition (MAPK14 (mice)) [%]	IC50 (MAPK14) [nM]
COC[C@H](C)Nc1cc(-c2c(-c3ccccc3)nc3nc(N)ccn23)ccn1	0.5		
C[C@H](Nc1nccc(-c2c(-c3ccccc3)nc3nc(N)ccn23)n1)c1ccccc1	0.6	100	
Nc1ccn2c(-c3ccncc3)c(-c3ccc(F)cc3)nc2n1	40		
C[C@@H](Nc1nccc(-c2c(-c3ccccc3)nc3nc(N)ccn23)n1)c1ccccc1	2.3		
Nc1ccn2c(-c3ccnc(N[C@H]4CCCc5ccccc54)c3)c(-c3ccccc3)nc2n1	3		
Fc1ccc(-c2[nH]c3ccc4[nH]c(Cc5ccccc5)nc4c3c2-c2ccncc2)cc1	60		
C[C@H](Nc1cc(-c2c(-c3ccc(F)cc3)nc3nc(N)ccn23)ccn1)c1ccccc1	2		1
